pKi: −log10 of the molar value. Square brackets hold non-standard residues; d marks the D form. * marks the point of attachment. CH2Cl = ClC*
What was measured:
cervical motoneurons = assay: Cervical motoneuron cell death in vivo; design: species or system chick; conditions: for Pyknotic Cervical Motoneurons on E4.5: mean ±SD
Description: The ability of the ICE inhibitors to block cell death in two classes of neurons whose naturally occurring death appears to be independent of target interaction was also studied. First, motoneurons in the cervical spinal cord undergo PCD between E4 and E5, with maximum levels occurring at E4.5.

lumbar motoneurons = assay: Naturally occurring lumbar motoneuron cell death in vivo; design: species or system chick; conditions: mean ±SD; for Pyknotic Lumbar Motoneurons on E8: 15 hours post treatment, single administration of 400 μg on E8; for Healthy Motoneurons (lumbar) on E9 / Pyknotic Motoneurons (lumbar) on E9: 24 hours post treatment
Protocol: In the first model, embryos were treated with a single dose of an ICE inhibitor or control protease inhibitor on embryonic day 8 (E8), the time of maximum naturally occurring motoneuron cell death (Hamburger et al., J. Morph. 88:49-92 (1951)). Embryos treated in vivo with the peptide inhibitors appeared to develop normally and there were no gross abnormalties. […] 24 hours after treatment there is a similar reduction in the number of pyknotic cells and a significant increase in the number of healthy motoneurons (Table 6B). […] The ability of ICE inhibitors to block the naturally occurring cell death of interdigital cells in the developing limb was also studied. These cells undergo PCD as a means of sculpting the digits in many vertebrates. When embryos were treated with either ICE inhibitor on embryonic days, E6 and E7, there was a substantial reduction in the number of pyknotic cells between the digits of the hindlimb (FIG. 14).
Peptides. Two peptide inhibitors of ICE, Acetyl-Tyr-Val-Ala-Asp-aldehyde (Ac-YVAD-CHO) and Acetyl-Tyr-Val-Ala-Asp-chloromethylketone (Ac-YVAD-CMK) and two control peptide inhibitors, Acetyl-Leu-Leu-Arg-aldehyde (Ac-LLR-CHO; Leupeptin) and n-tosyl-Lys-chloromethyl-ketone (Tos-Lys-CMK) were synthesized by Bachem Biosciences (King of Prussia, Pa.) and shown by thin layer chromatography and HPLC to be greater than 98% pure. […] Methods for administration of peptides to examine effects on naturally occurring motoneuron cell death in vivo. Although cell death of lumbar motoneurons occurs between E6 and E12, the peak period of death (i.e., the greatest number of pyknotic cells) occurs on E8 (Oppenheim et al., J Comp. Neurol. 177:87-112 (1978)). For these experiments, embryos were given a single administration of an agent on E8 0 hr and sacrificed 15 hours later. […] Ac-YVAD-CMK and Tos-Lys-CMK were administered in a solution of DMSO/BSA, whereas Ac-YVAD-CHO and leupeptin (Sigma) were in BSA alone. The solutions (50-100 μl) were dropped onto the highly vascularized chorioallantoic membrane through a window in the shell. The control groups included both DMSO and BSA or vehicle alone. Embryos were killed and staged by the Hamburger-Hamilton series (Hamburger and Hamilton, J. Morph. 88:49-92 (1951)). The thoraco-lumbar spinal cord was dissected, fixed in Camoys or Bouins fixative, processed for paraffin histology, serially sectioned (10-12 μm) and stained with either thionin or hematoxylin and eosin. Pyknotic motoneurons were identified based on criteria previously described (Chu-Wang and Oppenheim, J. Comp. Neurol. 177:33-58 (1978); Clarke and Oppenheim In Methods in Cell Biology Series; Cell Death; eds: Schwartz and Osborne. Academic Press. New York, N.Y. In press.) and were counted in every 10th or 20th section through the entire lumbar enlargement. The total number of pyknotic cells were then estimated by multiplying these values by 10 or 20. All cell counts were performed by individuals blinded with regard to drug treatment of the embryos. Methods for limb bud removal experiments. A unilateral limb bud removal was performed on E2 as described previously (Oppenheim et al., J. Comp. Neurol. 177:87-112 (1978)). Because induced cell death following limb removal begins on E5 (before that there is no difference in the number of motoneurons between the operated or unoperated sides) embryos were given one treatment of Ac-YVAD-CHO (40 μg) or BSA (control) at E5-0 hr and another at E5-12 hours (total peptide administered was 80 μg). Animals were killed at E6-0 hr. Methods were the same as described above except the section thickness was 6-8 μm (see Method for Administration of Peptides, above). Methods for limb bud interdigital regions. […]

ICE = molecular target: T1, ICE (Homo sapiens, UniProt P29466); conditions: protease activity of ICE; cited from earlier work
T1 sequence (P29466 120-297): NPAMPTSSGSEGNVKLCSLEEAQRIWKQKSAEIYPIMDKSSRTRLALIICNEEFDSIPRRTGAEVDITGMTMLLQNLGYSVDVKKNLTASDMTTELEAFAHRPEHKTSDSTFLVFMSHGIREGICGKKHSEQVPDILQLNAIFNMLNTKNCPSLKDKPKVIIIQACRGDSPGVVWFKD
T1 sequence (P29466 317-404): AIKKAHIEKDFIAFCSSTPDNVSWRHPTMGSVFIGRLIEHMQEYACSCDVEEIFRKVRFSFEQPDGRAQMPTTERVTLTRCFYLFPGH

[1] = test system: undifferentiated neurons and precursor cells in the neural tube; assay: Cell death in the early neural tube in vivo; design: species or system chick
chick spinal motoneurons = assay: Motoneuron culture deprived of muscle extract, survival; format: cell-based; conditions: without muscle extract, treated between 14 and 24 hours, counted after 3 days
Description: A tissue culture model system that allows isolation of a relatively pure population of motoneurons whose survival is dependent on muscle extract, a potent source of target-derived trophic support, was used to test the ability of peptide inhibitors of ICE to block motoneuron cell death (Milligan et al., J Neurobiology 25:1005-1016 (1994) and Block-Gallego et al., Development. 111:221-232 (1991)). The death of motoneurons deprived of trophic support in vitro requires new gene expression and occurs by apoptosis (Milligan et al., J. Neurobiology 25:1005-1016 (1994)). Motoneurons deprived of trophic support at the time of plating become irreversibly committed to undergo cell death after 16-18 hours (Milligan et al., J. Neurobiology 25:1005-1016 (1994)). […] When motoneurons are treated with peptide inhibitors in the absence of muscle extract for three days and subsequently supplemented on day three with muscle extract, they continue to survive, and by six days appear as healthy and differentiated as the motoneurons that were continuously supplied with muscle extract (FIGS. 12A, 12B, 15G). Thus, motoneurons rescued for 3 days by ICE inhibitors remain capable of responding to trophic factors present in muscle extract.
Methods for motoneuron cultures. […]

Compound | Pyknotic Cervical Motoneurons on E4.5 (cervical motoneurons) | Pyknotic Lumbar Motoneurons on E8 (lumbar motoneurons) | Healthy Motoneurons (lumbar) on E9 (lumbar motoneurons) | Pyknotic Motoneurons (lumbar) on E9 (lumbar motoneurons) | pKi (ICE) | survival promoting effects on cervical motoneurons (cervical motoneurons; compared to control or Ac-LLR-CHO treated animals) | survival promoting effects on floorplate or dorsal spinal cord cells ([1]; compared to control animals) | Pyknotic Cells in the Early Neural Tube, Dorsal Spinal Cord ([1]; mean ±SD) | Pyknotic Cells in the Early Neural Tube, Floor Plate ([1]; mean ±SD) | motoneuron death (chick spinal motoneurons)
CC(=O)N[C@@H](CC(C)C)C(=O)N[C@@H](CC(C)C)C(=O)N[C@H](C=O)CCCNC(=N)N [Leupeptin, Acetyl-Leu-Leu-Arg-aldehyde] | 32.5 ± 7.9 | 310 ± 40 | 14,117 ± 971 | 297 ± 51 |  |  |  |  |  | 
Cc1ccc(S(=O)(=O)NC(CCCCN)C(=O)CCl)cc1 (stereo not drawn) [Tos-Lys-CMK, n-tosyl-Lys-chloromethyl-ketone] |  | 285 ± 31 | 13,257 ± 773 | 345 ± 39 |  |  |  |  |  | 
Ac-Tyr-Val-Lys-Asp-CHO (Ac-YVKD-aldehyde; SMILES CC(=O)N[C@@H](Cc1ccc(O)cc1)C(=O)N[C@H](C(=O)N[C@@H](CCCCN)C(=O)N[C@H](C=O)CC(=O)O)C(C)C) [Inhibitor D] |  |  |  |  | 8.52 |  |  |  |  | 
Ac-Y[dA]AD-aldehyde [Inhibitor C] |  |  |  |  | 5.82 |  |  |  |  | 
Acetyl-Tyr-Val-Ala-Asp-chloromethylketone (Ac-YVAD-CH2Cl) [Ac-YVAD-CMK] | 26.7 ± 2.2 | 216 ± 27 | 16,231 ± 755 | 200 ± 33 |  | no survival promoting effects | no survival promoting effects | 1.372 ± 0.235 | 0.872 ± 0.201 | inhibitory effects on motoneuron death

From patent US6939850B2, “Altered human interleukin-1β convertase (ICE), NEDD-2, and C. elegans ced-3 polypeptides and uses therefor” (Massachusetts Institute of Technology, priority 1992, dated 2005)
